Consider ten molecules from EP1972624A1, “Benzoxazinones and their use as ultraviolet light absorbers” (Clariant International Ltd., priority 2007, dated 2008).

Each structure is given as a SMILES string. In brackets after ≈: the same amount, converted by molar mass.

Holding throughout (assay type): physicochemical
Series [1] in a line: UV/vis: λmax and ε in CH2Cl2 by UV spectrophotometer. As to conditions: dissolved in CH2Cl2. The procedure: λmax (lambda max) and ε (epsilon) values of the compounds of formula (I) are determined dissolved in CH2Cl2 using an UV spectrophotometer. These values are obtained by balancing the measurements performed on compound solutions at three different concentrations.
Series [2] can be described thus: Solubility in organic solvents. As to conditions: for Solubility in Dowanol PMA: Dowanol PMA (CH3COO2CH(CH3)CH2OCH3).
Series [3] in a line: Decomposition point (DP) by DSC. The note with it: sealed aluminum pan, 40 to 400°C, 10°C/min, nitrogen. The procedure:
The decomposition point (DP) is determined using a TA Instruments DSC Q100 apparatus, the compound being incorporated into a sealed aluminum pan. Analysis conditions are as following: Temperature range from 40 to 400°C, heating rate 10°C/min, nitrogen flow of 50 ml/min. Values are determined by single measurement.

Take `CCCCCCCCOc1c(-c2nc3ccccc3c(=O)o2)sc2ccccc12` [(Ia)]: in series [1], the εmax was determined as 26000 L/mol/cm and the λmax worked out at 341 nm. In series [2], the “Solubility in Dowanol PMA” value was > 50 g/L and the Solubility in xylene was > 100 g/L. Moreover, in series [3], the “DP (decomposition point)” value was found to be 370 °C.

In series [1], `CCCCC(CC)COc1c(-c2nc3ccccc3c(=O)o2)sc2ccccc12` (stereo not drawn) [(Ib)] returned a εmax of 26200 L/mol/cm and a λmax of 341 nm. In series [2], the “Solubility in Dowanol PMA” value is > 50 g/L and the Solubility in xylene was > 100 g/L. Also, the “DP (decomposition point)” value in series [3] turned out to be 385 °C.

In series [1], `CCCCCCCCCCCCOc1c(-c2nc3ccccc3c(=O)o2)sc2ccccc12` [(Ic)] gave a εmax of 21800 L/mol/cm and a λmax of 342 nm. In series [2], this molecule showed a Solubility in xylene of 120 g/L (≈ 259 mM). In addition, the “DP (decomposition point)” value in series [3] is 381 °C.

Regarding `CCCCCCCCCCCCCCCCOc1c(-c2nc3ccccc3c(=O)o2)sc2ccccc12` [(Id)], in series [1], the εmax worked out at 31900 L/mol/cm and the λmax amounted to 341 nm. This molecule registered a Solubility in xylene in series [2] of 100 g/L (≈ 192 mM). Besides, the “DP (decomposition point)” value in series [3] was 384 °C.

For `CCCCCCCCCCCc1c(-c2nc3ccccc3c(=O)o2)sc2ccc(C)cc12` [(Ie)], in series [1], the εmax was 25900 L/mol/cm and the λmax came out at 343 nm. The Solubility in xylene in series [2] was determined as 40 g/L (≈ 89.4 mM). In series [3], the “DP (decomposition point)” value is ≥ 400 °C.

`CC(=O)Oc1c(-c2nc3ccccc3c(=O)o2)sc2ccccc12` [(If)]: in series [1], the εmax is 28700 L/mol/cm and the λmax came to 337 nm. In series [2], the Solubility in xylene was < 10 g/L. Besides, in series [3], the “DP (decomposition point)” value was 351 °C.

In series [1], `CCCC(=O)Oc1c(-c2nc3ccccc3c(=O)o2)sc2ccccc12` [(Ig)] returned a εmax of 26400 L/mol/cm and a λmax of 337 nm. For the same molecule, the Solubility in xylene in series [2] is < 10 g/L. Further, in series [3], the “DP (decomposition point)” value is 352 °C.

In series [1], `CCCCC(CC)C(=O)Oc1c(-c2nc3ccccc3c(=O)o2)sc2ccccc12` (stereo not drawn) [(Ih)] returned a εmax of 24100 L/mol/cm and a λmax of 337 nm. The Solubility in xylene in series [2] worked out at 10 g/L (≈ 23.7 mM). For the same molecule, the “DP (decomposition point)” value in series [3] came out at 375 °C.

In series [1], `O=C(Oc1c(-c2nc3ccccc3c(=O)o2)sc2ccccc12)c1ccccc1` [(Ii)] came in with a εmax of 25500 L/mol/cm and a λmax of 338 nm. Further, the Solubility in xylene in series [2] was < 10 g/L. Also, in series [3], the “DP (decomposition point)” value was ≥ 400 °C.

In the case of `O=c1oc(-c2sc3ccccc3c2Cl)nc2ccccc12` [(Ij)], in series [1], the εmax was 29000 L/mol/cm and the λmax is on record as 338 nm. Also, the Solubility in xylene in series [2] was < 5 g/L. The “DP (decomposition point)” value in series [3] is ≥ 390 °C.
